Data from PMC5750217 (Nature Communications, 2018).
Changes are numbered by the printed parent chain.

Tests used:
ASCT1 = molecular target: T1, ASCT1 (Homo sapiens, UniProt P43007); experiment: Radiolabelled uptake in oocytes expressing ASCT1; format: cell-based; details: 10 µM radiolabelled substrate, 10 min, room temperature
T1 construct: expressed in transfected cells; host or cells: Xenopus laevis oocytes (cRNA injection)
T1 sequence (P43007 1-532): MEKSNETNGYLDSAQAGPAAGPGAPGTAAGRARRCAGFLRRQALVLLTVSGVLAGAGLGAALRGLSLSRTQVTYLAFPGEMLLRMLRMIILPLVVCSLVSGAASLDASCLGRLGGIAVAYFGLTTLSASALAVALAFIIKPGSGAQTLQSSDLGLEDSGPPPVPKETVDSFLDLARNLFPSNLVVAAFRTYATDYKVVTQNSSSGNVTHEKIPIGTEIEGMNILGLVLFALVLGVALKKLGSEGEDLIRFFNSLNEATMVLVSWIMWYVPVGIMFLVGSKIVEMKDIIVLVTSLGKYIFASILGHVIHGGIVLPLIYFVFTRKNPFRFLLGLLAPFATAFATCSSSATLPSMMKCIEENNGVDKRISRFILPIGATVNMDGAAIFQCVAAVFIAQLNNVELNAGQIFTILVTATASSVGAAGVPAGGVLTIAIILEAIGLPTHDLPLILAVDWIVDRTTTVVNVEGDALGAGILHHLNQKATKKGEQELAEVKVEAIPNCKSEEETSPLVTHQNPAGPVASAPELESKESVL
Description: Uptake of L-[^3H]amino acids (PerkinElmer Life Sciences) was measured in oocytes expressing wild-type and mutant ASCT1, and uninjected oocytes. Five oocytes were incubated in Cl^−-containing buffer with 10 µM L-[^3H]amino acids at room temperature. After 10 min, uptake was terminated by three rapid washes in ice-cold Cl^−-containing buffer followed by lysis in 50 mM NaOH and 1% SDS. L-[^3H]amino acids were measured by scintillation counting using a Trilux beta counter (PerkinElmer Life Sciences).
Supplementary Figure 6. GltPh‐R397C, ASCT1 and ASCT2 are functional cysteine transporters. (a) […]
7.5) containing 1 µM of valinomycin and the 10µM 35S‐cysteine. […]
All data represent the mean of triplicate
(1 picture or pasted object on this page, not shown here)

A1-T459C (mutant ASCT1) = molecular target: T2, A1-T459C (mutant ASCT1) (Homo sapiens, UniProt P43007, T459C); experiment: Two electrode voltage clamp, substrate-activated anion current in oocytes expressing A1-T459C; format: cell-based; details: for EC50: A1-T459C in oocytes, NO3−-containing buffer, current at +60 mV
T2 construct: expressed in transfected cells; host or cells: Xenopus laevis oocytes (cRNA injection)
T2 sequence (P43007 1-532 T459C): T1 sequence (P43007 1-532) with T459C
Description: All chemicals were obtained from Sigma unless otherwise stated. Stage V oocytes were harvested from female Xenopus laevis (frogs) which were obtained from Nasco (Fort Alkinson, USA). Frogs were anaesthetised with 6.5 mM tricaine neutralised with 7.14 mM sodium bicarbonate. After making an incision in the abdomen of the frog, ovarian sacs were removed and stored in OR-2 buffer (82.5 mM NaCl, 2 mM KCl, 1 mM MgCl2, 5 mM hemisodium HEPES, pH 7.5). This surgical procedure follows a protocol (#2016/970) approved by the University of Sydney Animal Ethics Committee under the Australian Code of Practice for the Care and Use of Animals for Scientific Purposes. To isolate oocytes, the ovarian sacs were cut into small sections before being digested by agitation with 2 mg per ml Collagenase A for 1–2 h. Following digestion, defoliculated oocytes were initially rinsed with OR-2, followed by frog Ringer’s solution (96 mM NaCl, 2 mM KCl, 1 mM MgCl2, 1.8 mM CaCl2, 5 mM hemisodium HEPES, pH 7.5). A total of 20 ng of transporter cRNA was injected into oocytes which were stored in frog Ringer’s solution supplemented with 0.1% gentamycin, 50 μg per ml tetracycline, 2.5 mM pyruvate and 0.5 mM theophylline at 16–18 °C.
After 2–4 days of microinjection, current recordings were made using the two electrode voltage clamp technique with a Geneclamp 500 amplifier (Axon Instruments, Foster City, CA) interfaced with a MacLab 2e chart recorder (ADI Instruments, Sydney, Australia) using the chart software, and a Digidata 1322A (Axon Instruments) controlled by an IBM-compatible computer using the pClamp software (version 10, Molecular Devices, Union City, CA). The current–voltage relationships for substrate elicited conductances were obtained by subjecting cells to 200 ms voltage pulses between −100 mV and + 60 mV in 10 mV steps. Current–voltage relationships were calculated by subtracting steady state current measurements in the absence of substrate from corresponding current measurements in the presence of substrate. […]

Row | Structure (SMILES) | Radiolabelled substrate uptake into oocytes (in words) (ASCT1) | EC50 (A1-T459C (mutant ASCT1)) [µM] | GPNA % inhibition of L-serine activated current (A1-T459C (mutant ASCT1); A1-T459C, GPNA co-applied with EC50 of L-serine, maximal dose / 1 mM GPNA (Table 1 footnote)) [%]
1 | N[C@@H](CS)C(=O)O [L-cysteine] | robust L-[^35S]cysteine uptake | – | –
2 | N[C@@H](CO)C(=O)O [L-serine] | observe L-[^3H]serine uptake | 83 ± 6 | –
3 | N[C@@H](CCC(=O)Nc1ccc([N+](=O)[O-])cc1)C(=O)O [GPNA, glutamyl-p-nitroanilide] | – | – | 18 ± 1
4 | NC(=O)CC[C@H](N)C(=O)O [L-glutamine] | no glutamine transport is observed | 260 ± 80 | –
